The assay concerns 5′ UTR of HCV mRNA. The experiment in a line: Phage panning and phage Elisa on biotinylated RNA target. The note with it: phage clones; positive if A405 >2-fold over background. It counts as binding. The procedure: Surrogate peptides were obtained by panning a portion of the 5′ UTR of HCV mRNA using both the 20 mer and 40 mer random libraries. All solutions and surfaces were pretreated with DEPC or RNaseZap (Ambion, Inc.), respectively, to eliminate RNase contamination that may compromise the integrity of the RNA. Biotinylated—RNA target was diluted to 1 mg/ml in binding buffer (PBS containing 1 mM MgCl2), denatured at 65° C. for 5 min and reannealed by slow cooling to room temperature to allow for appropriate refolding. The synthetic biotinylated-RNA target had the following sequence, 5′-biotin′AA UUGCCAGGACGACCGGGUCCUUUCUUGGAU CM CCC GCU CM UGC CUG GAG AUU-3′. Reannealed RNAs were stored in small aliquots (10-25 μl/tube) at −20° C. Microtiter wells were treated with RNaseZap (Ambion, Inc.) before use. One hundred microliters of RNA solution diluted to 2.5 ng/μl was added to an appropriate number of wells in a 96-well microtiter plate precoated with Streptavidin (Pierce) and incubated for 1 hr at room temperature. Unbound streptavidin was then blocked with 50 μl of 2 mM biotin at room temperature for 1 hr. Four wells were used for each round of panning and 100 μl phage was added to each well. Pahge were precipitated with RNase-free 6% PEG 8000+0.3 M NaCl, washed with the same solution once and resuspended in RNase-free PBS+1 mM MgCl2+Superasin (RNase inhibitor from Ambion, Inc.). For the first round, the input phage titer was 1×10^13 cfu/ml. For rounds 2 and 3, the input phage titer was approximately 10^11 cfu/ml. Phage were allowed to bind for two to three hours at room temperature. The wells were then quickly washed 13 times with 400 μl/well of PBS. Bound phage were eluted by incubation with 150 μl/well of 50 mM glycine-HCl, pH 2.2+0.1% BSA for 5 min. The resulting solution was then neutralized with Tris-HCl, pH 8.0. Log phase TG1 cells were infected with the eluted phage by incubation at 37° C. for 1 hr. Helper phage (M13KO7) was then added (multiplicity of infection(MOI)=15) and cells incubated in the presence of 50 μg/ml ampicillin and 2% glucose for 1 hr at 37° C. with shaking at 250 rpm. Following infection, cells were pelleted, resuspended in the initial culture volume of 2×YT containing 50 μg/ml ampicillin and 50 μg/ml Kanamycin and grown overnight at 37° C. with shaking at 225 rpm. Cells from the overnight culture were pelleted and supernatant containing phage was recovered. Phage was precipitated with 6% PEG 8000, 300 mM NaCl and chilled on ice for 1 hr. […]
For Elisa analysis of individual clones, colonies were picked and phage prepared as described above using helper phage, M13KO7. […] Plates were analyzed at 405 nm using a SpectraMax 340 plate reader (Molecular Devices) and SoftMax Pro software. […]
Take “RRTCGDPAAMLERLSCRAGDYRGASHTGRLLNLRGMHQYP [HCV-3-H8]”: the “Binding to HCV mRNA target” value is “binders”.

For FTTPRHLSGRTVQMMRDSTS [HCV-3-C3], the “Binding to HCV mRNA target” value was “binders”.

Take “LLVTGQFP--SQLLLGGAVCGP--STPRLRTGLCRLSGT (LLVTGQFPSQLLLGGAVCGPSTPRLRTGLCRLSGT) [HCV-3-F5]”: the “Binding to HCV mRNA target” value was “binders”.

In the case of TSGESSGDRTRRVLTSSSARTILPN [HCV-NG-D9], the “Binding to HCV mRNA target” value is on record as “binders”.

For the origin of these results see US20030054348A1, “Methods of identifying the activity of gene products” (priority 2000, published 2003).
